Target: human TYK2 (JH2domain-pseudokinase) (Homo sapiens (Human), UniProt P29597)
Assay: TYK2 JH2 Domain Binding Assay (KINOMEscan, DiscoveRx)
Conditions: 11-point dilution, duplicate
Method in brief: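 TYK2 JH2 (G556–D888)–NFkB DBD fusion, DNA-tagged, from HEK293 extracts (<0.1 nM) competed against immobilised biotinylated ligand for 1 h at room temperature, 0.9% DMSO. Bead-retained kinase quantified by qPCR; Kd from 11-point 3-fold series (top 30,000 nM, duplicate), Hill fit with slope −1.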

Sequence of human TYK2 (JH2domain-pseudokinase) (P29597 556-888): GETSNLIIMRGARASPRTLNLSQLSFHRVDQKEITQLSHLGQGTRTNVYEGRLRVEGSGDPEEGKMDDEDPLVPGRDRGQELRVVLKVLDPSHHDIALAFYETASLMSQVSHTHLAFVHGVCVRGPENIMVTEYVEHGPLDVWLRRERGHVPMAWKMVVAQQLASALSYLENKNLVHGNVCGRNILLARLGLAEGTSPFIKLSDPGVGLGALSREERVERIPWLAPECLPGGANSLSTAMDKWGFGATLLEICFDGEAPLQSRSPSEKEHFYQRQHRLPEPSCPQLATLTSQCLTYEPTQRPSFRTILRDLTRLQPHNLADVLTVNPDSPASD

Structure (SMILES)	Kd [nM]
COc1c(Nc2cc(NC(=O)C3CC3)nc3[nH]c(C)nc23)cccc1-n1ncnc1C [I-162, N-(7-((2-methoxy-3-(5-methyl-1H-1,2,4-triazol-1-yl)phenyl)amino)-2-methyl-3H-imidazo[4,5-b]pyridin-5-yl)cyclopropanecarboxamide]	> 10
COc1cc(-c2nc(C)nn2C)ccc1Nc1cc(NC(=O)C2CC2)nc2[nH]c(C)nc12 [I-163, N-(7-((4-(1,3-dimethyl-1H-1,2,4-triazol-5-yl)-2-methoxyphenyl)amino)-2-methyl-3H-imidazo[4,5-b]pyridin-5-yl)cyclopropanecarboxamide]	0.5 to 1
Cc1nc(-c2ccc(Nc3cc(NC(=O)C4CC4)nc4[nH]c(C(F)F)nc34)c(N(C)S(C)(=O)=O)c2)n(C)n1 [I-164, N-(2-(difluoromethyl)-7-((4-(1,3-dimethyl-1H-1,2,4-triazol-5-yl)-2-(N-methylmethylsulfonamido)phenyl)amino)-3H-imidazo[4,5-b]pyridin-5-yl)cyclopropanecarboxamide]	0.1 to 0.5
Cc1nc(-c2ccc(Nc3cc(NC(=O)C4CC4)nc4[nH]c(C)nc34)c(N(C)S(C)(=O)=O)c2)n(C)n1 [I-165, N-(7-((4-(1,3-dimethyl-1H-1,2,4-triazol-5-yl)-2-(N-methylmethylsulfonamido)phenyl)amino)-2-methyl-3H-imidazo[4,5-b]pyridin-5-yl)cyclopropanecarboxamide]	> 10
Cc1nc(-c2ccc(Nc3cc(Nc4cnc(C)c(C)n4)nc4[nH]c(C(F)F)nc34)c(N(C)S(C)(=O)=O)c2)n(C)n1 [I-166, N-(2-((2-(difluoromethyl)-5-((5,6-dimethylpyrazin-2-yl)amino)-3H-imidazo[4,5-b]pyridin-7-yl)amino)-5-(1,3-dimethyl-1H-1,2,4-triazol-5-yl)phenyl)-N-methyl-methanesulfonamide]	0.1 to 0.5
COc1c(Nc2cc(Nc3cc(F)c(N4CC(OC)C4)cn3)nc3[nH]c(C(F)F)nc23)cccc1-c1nc(C)nn1C [I-167, 2-(difluoromethyl)-N7-(3-(1,3-dimethyl-1H-1,2,4-triazol-5-yl)-2-methoxyphenyl)-N5-(4-fluoro-5-(3-methoxyazetidin-1-yl)pyridin-2-yl)-3H-imidazo[4,5-b]pyridine-5,7-diamine]	> 10
COc1c(Nc2cc(Nc3cc(F)c(N4CC(OC)C4)cn3)nc3[nH]c(C)nc23)cccc1-c1nc(C)nn1C [I-168, N7-(3-(1,3-dimethyl-1H-1,2,4-triazol-5-yl)-2-methoxyphenyl)-N5-(4-fluoro-5-(3-methoxyazetidin-1-yl)pyridin-2-yl)-2-methyl-3H-imidazo[4,5-b]pyridine-5,7-diamine]	> 10
Cc1cnc(-c2ccc(Nc3cc(NC(=O)C4CC4)nc4[nH]c(C(F)F)nc34)c(N(C)S(C)(=O)=O)c2)n1C [I-169, N-(2-(difluoromethyl)-7-((4-(1,5-dimethyl-1H-imidazol-2-yl)-2-(N-methylmethylsulfonamido)phenyl)amino)-3H-imidazo[4,5-b]pyridin-5-yl)cyclopropanecarboxamide]	0.1 to 0.5
Cc1nc2c(Nc3ccc(-c4ncc(C)n4C)cc3N(C)S(C)(=O)=O)cc(NC(=O)C3CC3)nc2[nH]1 [I-170, N-(7-((4-(1,5-dimethyl-1H-imidazol-2-yl)-2-(N-methylmethyl-sulfonamido)phenyl)amino)-2-methyl-3H-imidazo[4,5-b]pyridin-5-yl)cyclopropanecarboxamide]	0.1 to 0.5
CN(c1cc(-c2ccn(C)n2)ccc1Nc1cc(NC(=O)C2CC2)nc2[nH]c(C(F)F)nc12)S(C)(=O)=O [I-171, N-(2-(difluoromethyl)-7-((4-(1-methyl-1H-pyrazol-3-yl)-2-(N-methylmethylsulfonamido)phenyl)amino)-3H-imidazo[4,5-b]pyridin-5-yl)cyclopropaneCarboxamide]	0.1 to 0.5
COc1c(Nc2cc(NC(=O)C3CC3)nc3[nH]c(C(F)(F)F)nc23)cccc1-c1nnn(C)n1 [I-172, N-(7-((2-methoxy-3-(2-methyl-2H-tetrazol-5-yl)phenyl)amino)-2-(trifluoromethyl)-3H-imidazo[4,5-b]pyridin-5-yl)cyclopropanecarboxamide]	> 10
